In patent publication US20250313548A1 (Actio Biosciences, Inc., priority 2023, published 2025) one finds IC50 data, which are given here for 25 molecules.

A value given as a limit tells only on which side of the number the result lay.

The target in this experiment is human, KCNT1 (Homo sapiens (Human), UniProt Q5JUK3). The experiment is described as follows: FLIPR Tl/K Flux Assay. The note with it: HEK293 cells stably expressing human KCNT1; Tl+ flux stimulated with EC80 of agonist Loxapine. In kind it is cell-based. Here is the method: HEK293 cells stably expressing human, KCNT1 were cultured in DMEM, 10% FBS, 100 U/mL penicillin-streptomycin and […] puromycin for selection purposes. One day before the assay, cells were detached using TrypLE™ Express and counted using a cell counter. Only cells with >85% viability were used for the assay. […] The cells were incubated overnight at 37° C., 5% (v/v) CO2.
Chain of human, KCNT1 (Q5JUK3 whole entry): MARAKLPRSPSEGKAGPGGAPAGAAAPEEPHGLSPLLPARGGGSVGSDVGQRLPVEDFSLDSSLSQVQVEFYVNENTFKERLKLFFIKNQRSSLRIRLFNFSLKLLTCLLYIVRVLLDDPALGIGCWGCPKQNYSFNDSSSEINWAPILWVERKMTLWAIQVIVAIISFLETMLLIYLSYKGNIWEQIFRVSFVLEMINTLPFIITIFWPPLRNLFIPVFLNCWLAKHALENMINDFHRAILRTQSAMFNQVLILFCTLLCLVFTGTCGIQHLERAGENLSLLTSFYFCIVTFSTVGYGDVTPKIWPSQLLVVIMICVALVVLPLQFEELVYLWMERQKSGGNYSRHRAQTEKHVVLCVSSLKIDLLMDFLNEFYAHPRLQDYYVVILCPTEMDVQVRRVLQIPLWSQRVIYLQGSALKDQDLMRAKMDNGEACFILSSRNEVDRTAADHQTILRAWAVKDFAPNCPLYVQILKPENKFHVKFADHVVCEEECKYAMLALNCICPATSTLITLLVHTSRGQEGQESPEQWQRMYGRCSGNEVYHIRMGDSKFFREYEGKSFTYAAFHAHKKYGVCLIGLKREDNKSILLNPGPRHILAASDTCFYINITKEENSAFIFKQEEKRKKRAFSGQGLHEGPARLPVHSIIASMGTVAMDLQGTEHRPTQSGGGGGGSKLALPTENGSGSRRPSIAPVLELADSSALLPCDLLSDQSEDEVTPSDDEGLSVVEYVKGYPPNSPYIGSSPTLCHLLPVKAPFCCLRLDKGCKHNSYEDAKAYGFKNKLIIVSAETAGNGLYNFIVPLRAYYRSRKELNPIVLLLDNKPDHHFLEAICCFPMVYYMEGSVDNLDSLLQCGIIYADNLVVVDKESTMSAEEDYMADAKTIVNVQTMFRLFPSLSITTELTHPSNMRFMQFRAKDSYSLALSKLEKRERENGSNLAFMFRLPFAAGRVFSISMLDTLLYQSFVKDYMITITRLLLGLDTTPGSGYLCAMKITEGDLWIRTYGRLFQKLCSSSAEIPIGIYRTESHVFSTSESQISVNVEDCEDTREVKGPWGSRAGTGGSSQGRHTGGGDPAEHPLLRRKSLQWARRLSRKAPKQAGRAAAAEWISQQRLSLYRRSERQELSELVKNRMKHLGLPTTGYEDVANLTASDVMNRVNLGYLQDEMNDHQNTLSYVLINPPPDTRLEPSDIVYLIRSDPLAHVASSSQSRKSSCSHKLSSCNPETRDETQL
On the day of the assay, the reagents were prepared following the FLIPR® Potassium Assay Kit manual: prepare 2× dye solution, dilute the dye with assay buffer (20 mM HEPES in 1× HBSS, PH7.4), addition of probenecid to a final concentration of 5 mM, and vortexed vigorously for 1-2 minutes. The cell plate was flicked to remove medium and tapped on paper towels to remove excess media. […] The cell plate was moved to a plate shaker, agitated at 600 rpm for two minutes, and then incubated at 25° C. for one hour.
The compounds were prepared in DMSO and transferred to a 384-well compound plate (PP, low binding), referred to as a source plate. Reference agonist (300 nM) compound and test inhibitor (10 mM) compounds were added to the compound plate and a 4-fold serial dilution was performed in DMSO. Using an ECHO dispenser, compounds were dispensed at 90 nL/well from the source plate to a 384-well compound plate (PP, low binding). After the dispensing was complete, 30 µL/well assay buffer was added to the compound plate and mixed for two minutes on a plate shaker. The cell plate, compound plate, and tips were loaded into the FLIPR instrument, and a transfer of 10 μl of 3× compound to the cell plate was initiated. The treated cell plate was kept at in the dark at 25° C. for 30 minutes. Chloride-free stimulation buffer containing 4× 2 mM Tl+ and 4×EC80 of agonist Loxapine was loaded into a 384-well compound plate (PP, low binding). After the 30-minute incubation, the cell plate, compound plate containing stimulation buffer, and FLIPR tips were loaded into the FLIPR instrument. After a baseline read, the FLIPR initiates a transfer of 10 μL of stimulation buffer containing Loxapine to the cell plate. The plate was read for 160 sec with 1 second interval reads to obtain the data.
The normalized fluorescence reading (RFU) was calculated as shown follow, while Fmax and Fmin stand for maximum and minimum of signal during defined time window. The IC50 was calculated by fitting % inhibition against log of compound concentrations with Hill equation using XLfit.
For the molecule `Cn1nc(C(F)(F)F)cc1C(=O)NC1CCc2nn(-c3ccnc(C(F)(F)F)c3)cc21` (racemic) [Compound I-1, (rac)-1-Methyl-3-(trifluoromethyl)-N-(2-(2-(trifluoromethyl)pyridin-4-yl)-2,4,5,6-tetrahydrocyclopenta[c]pyrazol-4-yl)-1H-pyrazole-5-carboxamide], the IC50 (usually the point on the concentration scale where inhibition reaches its midpoint) was less than 250 nM.
With `Cn1nc(C(F)(F)F)cc1C(=O)NC1CCCc2nn(-c3ccnc(C(F)(F)F)c3)cc21` (racemic) [Compound I-4, (rac)-1-Methyl-3-(trifluoromethyl)-N-(2-(2-(trifluoromethyl)pyridin-4-yl)-4,5,6,7-tetrahydro-2H-indazol-4-yl)-1H-pyrazole-5-carboxamide], the IC50 was less than 250 nM.
`CCn1nc(C(F)(F)F)cc1C(=O)NC1CCCc2nn(-c3ccnc(C(F)(F)F)c3)cc21` (racemic) [Compound I-7, (rac)-1-Ethyl-3-(trifluoromethyl)-N-(2-(2-(trifluoromethyl)pyridin-4-yl)-4,5,6,7-tetrahydro-2H-indazol-4-yl)-1H-pyrazole-5-carboxamide]: the IC50 was less than 250 nM.
With `CC(C)n1nc(C(F)(F)F)cc1C(=O)NC1CCCc2nn(-c3ccnc(C(F)(F)F)c3)cc21` (racemic) [Compound I-8, (rac)-1-Isopropyl-3-(trifluoromethyl)-N-(2-(2-(trifluoromethyl)pyridin-4-yl)-4,5,6,7-tetrahydro-2H-indazol-4-yl)-1H-pyrazole-5-carboxamide] the figure was less than 250 nM; with `Cn1nc(C(C)(F)F)cc1C(=O)NC1CCCc2nn(-c3ccnc(C(F)(F)F)c3)cc21` (racemic) [Compound I-10, (rac)-3-(1,1-Difluoroethyl)-1-methyl-N-(2-(2-(trifluoromethyl)pyridin-4-yl)-4,5,6,7-tetrahydro-2H-indazol-4-yl)-1H-pyrazole-5-carboxamide], less than 250 nM.
For `Cn1nc(C2CC2)cc1C(=O)NC1CCCc2nn(-c3ccnc(C(F)(F)F)c3)cc21` (racemic) [Compound I-11, (rac)-3-Cyclopropyl-1-methyl-N-(2-(2-(trifluoromethyl)pyridin-4-yl)-4,5,6,7-tetrahydro-2H-indazol-4-yl)-1H-pyrazole-5-carboxamide], the IC50 lay within 250 to 500 nM.
For `Cn1nc(C(F)F)cc1C(=O)NC1CCCc2nn(-c3ccnc(C(F)(F)F)c3)cc21` (racemic) [Compound I-12, (rac)-3-(Difluoromethyl)-1-methyl-N-(2-(2-(trifluoromethyl)pyridin-4-yl)-4,5,6,7-tetrahydro-2H-indazol-4-yl)-1H-pyrazole-5-carboxamide] the value was less than 250 nM.
For `O=C(NC1CCCc2nn(-c3ccnc(C(F)(F)F)c3)cc21)c1ccccc1` (racemic) [Compound I-13, (rac)-N-(2-(2-(Trifluoromethyl)pyridin-4-yl)-4,5,6,7-tetrahydro-2H-indazol-4-yl)benzamide] the value was less than 250 nM; for `CCOc1cc(-n2cc3c(n2)CCCC3NC(=O)c2cc(Cl)cc(C(F)(F)F)c2)ccn1` (racemic) [Compound I-14, (rac)-3-Chloro-N-(2-(2-ethoxypyridin-4-yl)-4,5,6,7-tetrahydro-2H-indazol-4-yl)-5-(trifluoromethyl)benzamide], less than 250 nM.
Molecule `CCOc1cc(-n2cc3c(n2)CCCC3NC(=O)c2cc(C)cc(C(F)(F)F)c2)ccn1` (racemic) [Compound I-15, (rac)-N-(2-(2-Ethoxypyridin-4-yl)-4,5,6,7-tetrahydro-2H-indazol-4-yl)-3-methyl-5-(trifluoromethyl)benzamide] showed an IC50 of less than 250 nM.
For `O=C(NC1CCCc2nn(-c3ccnc(C(F)(F)F)c3)cc21)c1ccc(C(F)(F)F)cc1` (racemic) [Compound I-16, (rac)-4-(Trifluoromethyl)-N-(2-(2-(trifluoromethyl)pyridin-4-yl)-4,5,6,7-tetrahydro-2H-indazol-4-yl)benzamide] the value was less than 250 nM; for `Cc1cccc(C(=O)NC2CCCc3nn(-c4ccnc(C(F)(F)F)c4)cc32)c1` (racemic) [Compound I-17, (rac)-3-Methyl-N-(2-(2-(trifluoromethyl)pyridin-4-yl)-4,5,6,7-tetrahydro-2H-indazol-4-yl)benzamide], less than 250 nM.
With `CCOc1cc(-n2cc3c(n2)CCCC3NC(=O)c2cccc(C(F)(F)F)c2)ccn1` (racemic) [Compound I-18, (rac)-N-(2-(2-Ethoxypyridin-4-yl)-4,5,6,7-tetrahydro-2H-indazol-4-yl)-3-(trifluoromethyl)benzamide] the figure was less than 250 nM.
With `O=C(NC1CCCc2nn(-c3ccnc(C(F)(F)F)c3)cc21)c1ccc(C(F)(F)F)nc1` (racemic) [Compound I-19, (rac)-6-(Trifluoromethyl)-N-(2-(2-(trifluoromethyl)pyridin-4-yl)-4,5,6,7-tetrahydro-2H-indazol-4-yl)nicotinamide] the figure was 250 to 500 nM; with `O=C(NC1CCCc2nn(-c3ccnc(C(F)(F)F)c3)cc21)c1ccnc(C(F)(F)F)c1` (racemic) [Compound I-20, (rac)-2-(Trifluoromethyl)-N-(2-(2-(trifluoromethyl)pyridin-4-yl)-4,5,6,7-tetrahydro-2H-indazol-4-yl)isonicotinamide], less than 250 nM; with `COc1cc(C(=O)NC2CCCc3nn(-c4ccnc(C(F)(F)F)c4)cc32)n(C)n1` (racemic) [Compound I-21, (rac)-3-Methoxy-1-methyl-N-(2-(2-(trifluoromethyl)pyridin-4-yl)-4,5,6,7-tetrahydro-2H-indazol-4-yl)-1H-pyrazole-5-carboxamide], more than 1000 nM.
In the case of `CCOc1cc(C(=O)NC2CCCc3nn(-c4ccnc(C(F)(F)F)c4)cc32)n(C)n1` (racemic) [Compound I-22, (rac)-3-Ethoxy-1-methyl-N-(2-(2-(trifluoromethyl)pyridin-4-yl)-4,5,6,7-tetrahydro-2H-indazol-4-yl)-1H-pyrazole-5-carboxamide], the IC50 fell in the range of 250 to 500 nM.
For `COCc1cc(C(=O)NC2CCCc3nn(-c4ccnc(C(F)(F)F)c4)cc32)n(C)n1` (racemic) [Compound I-23, (rac)-3-(Methoxymethyl)-1-methyl-N-(2-(2-(trifluoromethyl)pyridin-4-yl)-4,5,6,7-tetrahydro-2H-indazol-4-yl)-1H-pyrazole-5-carboxamide] the value was more than 1000 nM; for `Cn1cc(C(F)(F)F)nc1C(=O)NC1CCCc2nn(-c3ccnc(C(F)(F)F)c3)cc21` (racemic) [Compound I-24, (rac)-1-Methyl-4-(trifluoromethyl)-N-(2-(2-(trifluoromethyl)pyridin-4-yl)-4,5,6,7-tetrahydro-2H-indazol-4-yl)-1H-imidazole-2-carboxamide], 500 to 1000 nM; for `COc1cc(-n2cc3c(n2)CCCC3NC(=O)c2cc(C(F)(F)F)nn2C)ccn1` (racemic) [Compound I-25, (rac)-N-(2-(2-Methoxypyridin-4-yl)-4,5,6,7-tetrahydro-2H-indazol-4-yl)-1-methyl-3-(trifluoromethyl)-1H-pyrazole-5-carboxamide], 250 to 500 nM.
For `Cn1nc2ccccc2c1C(=O)NC1CCCc2nn(-c3ccnc(C(F)(F)F)c3)cc21` (racemic) [Compound I-26, (rac)-2-Methyl-N-(2-(2-(trifluoromethyl)pyridin-4-yl)-4,5,6,7-tetrahydro-2H-indazol-4-yl)-2H-indazole-3-carboxamide] the value was 250 to 500 nM; for `CCOc1cc(-n2cc3c(n2)CCCC3NC(=O)c2cc(C(F)(F)F)ccc2C)ccn1` (racemic) [Compound I-28, (rac)-N-(2-(2-Ethoxypyridin-4-yl)-4,5,6,7-tetrahydro-2H-indazol-4-yl)-2-methyl-5-(trifluoromethyl)benzamide], 250 to 500 nM.
With `Cc1ccccc1C(=O)NC1CCCc2nn(-c3ccnc(C(F)(F)F)c3)cc21` (racemic) [Compound I-29, (rac)-2-Methyl-N-(2-(2-(trifluoromethyl)pyridin-4-yl)-4,5,6,7-tetrahydro-2H-indazol-4-yl)benzamide] the figure was more than 1000 nM; with `CCOc1cc(-n2cc3c(n2)CCCC3NC(=O)c2ccc3ccccc3c2)ccn1` (racemic) [Compound I-30, (rac)-N-(2-(2-Ethoxypyridin-4-yl)-4,5,6,7-tetrahydro-2H-indazol-4-yl)-2-naphthamide], 500 to 1000 nM; with `O=C(NC1CCCc2nn(-c3ccnc(C(F)(F)F)c3)cc21)c1ccccn1` (racemic) [Compound I-31, (rac)-N-(2-(2-(Trifluoromethyl)pyridin-4-yl)-4,5,6,7-tetrahydro-2H-indazol-4-yl)picolinamide], more than 1000 nM.
